{
  "source": "patent US9023483B2",
  "about": "“Wood preservative compositions useful for treating copper-tolerant fungi” (Arch Timber Protection Limited, priority 2010, dated 2015)",
  "system": "Serpula himantioides strain ATCC 64894",
  "experiment": "EN 113 wood block decay test, Serpula himantioides, 16 weeks",
  "type": "cell-based",
  "description": "Five replicates were made per each treatment.\nAs shown in the above tables, the copper composition contains about 9% by weight copper, while both of the azole compositions contain about 10% by weight azole. The DQA cation was applied to the wood as a solution of 50 weight percent didecyldimethyl ammonium carbonate (DDACarbonate).\nThe wood samples were exposed for 16 weeks.",
  "data": [
    {"substance": "didecyldimethyl ammonium carbonate [DDACarbonate]", "values": [
      {"measurement": "16 weeks of exposure Average weight loss % of untreated weight loss", "setting": "Cu retention 0, DDACarbonate retention 0.25 Kg/m^3, 16 weeks", "value": 84, "unit": "%"},
      {"measurement": "16 weeks of exposure Average weight loss % of untreated weight loss", "setting": "Cu retention 0, DDACarbonate retention 0.5 Kg/m^3, 16 weeks", "value": 67, "unit": "%"},
      {"measurement": "protection of wood against decay by Serpula himantioides (in words)", "setting": "summary of the decay tests, 16 weeks", "value": "relatively little protection"}
    ]}
  ]
}
